In ChEMBL document CHEMBL3612061, “Imidazopyridines as a source of biological activity and their pharmacological potentials-Infrared and Raman spectroscopic evidence of their content in pharmaceuticals and plant materials” (Bioorg Med Chem, 2015):
Values after ≈ are worked out from the molar mass of the structure shown.

Test system: Vaccinia virus
Assay: Antiviral activity against Vaccinia virus assessed as protection against virus-induced cytopathogenic effect by cell based assay
Assay type: functional
Settings: Orthopoxvirus vaccinia; read-out: ID50 (the source's name)

Nc1nccc2c1ncn2C1C=C(CO)C(O)C1O (stereo unspecified) [3-DEAZANEPLANOCIN A]
IC50: 0.02 µg/mL (≈ 0.0763 µM)
